# Patent US20020022722A1, “4'-C-ethynyl pyrimidine nucleoside compounds” (priority 1999, published 2002)
# Where two headings read alike, the source gives them in different places.
# Legend:
# [1] = result in words; cited from earlier work
# HIV-1 (IIIb strain) = test: Anti-HIV activity, MTT method using MT-4 cells; type: cell-based; settings: Human immunodeficiency virus 1, IIIB
# Procedure: (2) Anti-human Immunodeficiency Virus (HIV) Activity
# (§1) 1) MTT Method Using MT-4 Cells
# (§2) 1. A test agent (100 μl) is diluted on a 96-well microplate. MT-4 cells infected with HIV-1 (IIIb strain; 100 TCID50) and non-infected MT-4 cells are added to the microplate such that the number of cells in each well becomes 10,000. The cells are cultured at 37° C. for five days.
# (§3) 2. MTT (20 μl, 7.5 mg/ml) is added to each well, and the cells are further cultured for 2-3 hours.
# (§4) 3. The cultured medium (120 μl) is sampled, and MTT terminating solution (isopropanol containing 4% Triton X-100 and 0.04N HCl) is added to the sample. The mixture is stirred to form formazane, which is dissolved. The absorbance at 540 nm of the solution is measured. Since the absorbance is proportional to the number of viable cells, the test agent concentration at which a half value of the absorbance is measured in a test using infected MT-4 cells represents EC50, whereas the test agent concentration at which a half value of the absorbance is measured in a test using non-infected MT-4 cells represents CC50.
# [2] = Cytotoxicity, MTT method using non-infected MT-4 cells; type: cell-based; settings: human
# Procedure: as §1, §2, §3, §4
# HIV wild strain: WT = test: MAGI assay using HeLa CD4/LTR-beta-Gal cells, WT; type: cell-based
# Procedure: (§5) 2) MAGI Assay Using HeLa CD4/LTR-beta-Gal Cells
# (§6) 1. HeLa CD4/LTR-beta-Gal cells are added to 96 wells such that the number of cells in each well is 10,000. After 12-24 hours, the culture medium is removed, and a diluted test agent (100 μl) is added.
# (§7) 2. A variety of HIV strains (wild strain: WT, drug-resistant strain: MDR, M184V, NL4-3, 104pre, and C; each equivalent to 50 TCID50) are added, and the cells are further cultured for 48 hours.
# (§8) 3. The cells are fixed for five minutes using PBS containing 1% formaldehyde and 0.2% glutaraldehyde.
# (§9) 4. After the fixed cells are washed with PBS three times, the cells are stained with 0.4 mg/ml X-Gal for one hour, and the number of blue-stained cells of each well is counted under a transmission stereoscopic microscope. The test agent concentration at which blue-stained cells decrease to 50% and 90% in number represents EC50 and EC90, respectively.
# [3] = system: HIV drug-resistant strain: MDR; test: MAGI assay using HeLa CD4/LTR-beta-Gal cells, MDR; type: cell-based; settings: Human immunodeficiency virus 1, HeLa
# Procedure: as §5, §6, §7, §8, §9
# [4] = system: HIV drug-resistant strain: M184V; test: MAGI assay using HeLa CD4/LTR-beta-Gal cells, M184V; type: cell-based; settings: Human immunodeficiency virus 1, HeLa
# Procedure: as §5, §6, §7, §8, §9
# [5] = Cytotoxicity by use of HeLa CD4/LTR-beta-Gal cells; type: cell-based; settings: human
# Procedure: (§10) 5. In a manner similar to that employed in the MTT method, cytotoxicity is measured by use of HeLa CD4/LTR-beta-Gal cells.
# HIV strain NL4-3 = test: MAGI assay using HeLa CD4/LTR-beta-Gal cells, NL4-3; type: cell-based
# Procedure: as §5, §6, §7, §8, §9
# HIV strain 104pre = test: MAGI assay using HeLa CD4/LTR-beta-Gal cells, 104pre; type: cell-based
# Procedure: as §5, §6, §7, §8, §9
# HIV strain C = test: MAGI assay using HeLa CD4/LTR-beta-Gal cells, C; type: cell-based; settings: Human immunodeficiency virus 1, HeLa; for EC90: read-out: HIV C (EC90, μM); for EC50: read-out: HIV C EC50, μM
# Procedure: as §5, §6, §7, §8, §9
# HIV-1 IIIb strain = settings: MT-4 cells, result in words; cited from earlier work
# [6] = system: HeLa CD4/LTR-beta-Gal cells; test: Cytotoxicity by use of HeLa CD4/LTR-beta-Gal cells; type: cell-based; settings: Table 6
# Procedure: as §10
# multi-PI resistant HIV-1 = settings: result in words; cited from earlier work
# [7] = MT4, read-out: HIV-1 (EC50, μg/ml), Table 2
# [8] = non-infected MT-4 cells, Table 2, read-out: Cytotoxicity (CC50, μg/ml)
# [9] = Human immunodeficiency virus 1, HeLa, read-out: HIV WT (EC50, μg/ml), Table 5
# [10] = read-out: HIV MDR (EC50, μg/ml), Table 5
# [11] = read-out: HIV M184V (EC50, μg/ml), Table 5
# [12] = Table 5, read-out: Cytotoxicity (CC50, μg/ml)
# [13] = MT4, Table 4, read-out: HIV-1 (EC50)
# [14] = MT4, Table 3, read-out: HIV-1 (EC50, μg/ml)
# [15] = non-infected MT-4 cells, Table 3, read-out: Cytotoxicity (CC50, μg/ml)
# [16] = Human immunodeficiency virus 1, HeLa, read-out: HIV WT (EC50, μg/ml), Table 6
# [17] = read-out: HIV MDR (EC50, μg/ml), Table 6
# [18] = read-out: HIV M184V (EC50, μg/ml), Table 6
# [19] = Table 6, read-out: Cytotoxicity (CC50, μg/ml)
# [20] = MT4, Table 2, read-out: HIV-1 (EC50, μg/ml)
# [21] = MT4, read-out: HIV-1 (EC50, μg/ml), Table 3
smiles,measurement,setting,value
C#C[C@]1(CO)O[C@@H](n2cc(C)c(=O)[nH]c2=O)[C@H](O)[C@@H]1O [1-(4-C-ethynyl-β-D-ribo-pentofuranosyl)thymine],biological activities such as antiviral and antitumor activities,[1],no such biological activities have been observed
"C#C[C@]1(CO)O[C@@H](n2ccc(N)nc2=O)[C@@H](O)[C@@H]1O [Compound 19, 1-(4-C-ethynyl-β-D-arabino-pentofuranosyl)cytosine]",EC50,HIV-1 (IIIb strain); [7],0.0115 µg/mL
same,CC50 at 5 days,[2]; [8],0.53 µg/mL
same,EC50,HIV wild strain: WT; [9],0.0019 µg/mL
same,EC50,[3]; [10],0.021 µg/mL
same,EC50,[4]; [11],0.19 µg/mL
same,CC50,[5]; [12],> 100 µg/mL
"C#C[C@]1(CO)O[C@@H](n2cc(F)c(N)nc2=O)C[C@@H]1O [Compound 37, 4′-C-ethynyl-2′-deoxy-5-fluorocytidine]",EC50,HIV-1 (IIIb strain); [13],33 nM
same,CC50 at 5 days,"[2]; non-infected MT-4 cells, Table 4, read-out: Cytotoxicity (CC50)",> 500000 nM
same,EC90,"HIV strain NL4-3; Human immunodeficiency virus 1, NL43, HeLa, read-out: HIV NL-43 (EC90, μM)",0.25 µM
same,EC50,"HIV strain NL4-3; Human immunodeficiency virus 1, NL43, HeLa, read-out: HIV NL-43 EC50, μM",0.021 µM
same,EC90,"HIV strain 104pre; Human immunodeficiency virus 1, HeLa, read-out: HIV 104 pre (EC90, μM)",0.19 µM
same,EC50,"HIV strain 104pre; Human immunodeficiency virus 1, HeLa, read-out: HIV 104 pre EC50, μM",0.022 µM
same,EC90,HIV strain C,3.44 µM
same,EC50,HIV strain C,0.122 µM
C#C[C@]1(CO)O[C@@H](n2ccc(N)nc2=O)[C@H](O)[C@@H]1O [4′-C-ethynylcytidine],biological activities such as antiviral and antitumor activities,[1],no such biological activities have been observed
"C#C[C@]1(CO)O[C@@H](n2cnc3c(=O)[nH]cnc32)CC1O (stereo partly drawn) [Compound 29, 9-(2-deoxy-4-C-ethynyl-β-D-ribo-pentofuranosyl)hypoxanthine]",EC50,HIV-1 (IIIb strain); [14],0.037 µg/mL
same,CC50 at 5 days,[2]; [15],38 µg/mL
same,EC50,HIV wild strain: WT; [16],0.22 µg/mL
same,EC50,[3]; [17],0.14 µg/mL
same,EC50,[4]; [18],4.6 µg/mL
same,CC50,[5]; [19],> 100 µg/mL
"C#C[C@]1(CO)O[C@@H](n2cnc3c(N)ncnc32)CC1O (stereo partly drawn) [Compound 23, 9-(2-deoxy-4-C-ethynyl-β-D-ribo-pentofuranosyl)adenine]",EC50,HIV-1 (IIIb strain); [14],0.0027 µg/mL
same,CC50 at 5 days,[2]; [15],4.4 µg/mL
same,EC50,HIV wild strain: WT; [16],0.0012 µg/mL
same,EC50,[3]; [17],0.0017 µg/mL
same,EC50,[4]; [18],0.013 µg/mL
same,CC50,[5]; [19],> 100 µg/mL
"C#C[C@]1(CO)O[C@@H](n2ccc(N)nc2=O)C[C@@H]1O [Compound 13, 4′-C-ethynyl-2′-deoxycytidine]",EC50,HIV-1 (IIIb strain); [20],0.0012 µg/mL
same,EC50,"HIV wild strain: WT; Human immunodeficiency virus 1, Table 5, read-out: HIV WT (EC50, μg/ml)",0.00031 µg/mL
same,EC50,[3]; [10],0.0003 µg/mL
same,EC50,[4]; [11],0.00054 µg/mL
C#C[C@]1(CO)O[C@@H](n2ccc(=O)[nH]c2=O)[C@H](O)[C@@H]1O [4′-C-ethynyluridine],biological activities such as antiviral and antitumor activities,[1],no such biological activities have been observed
"C#C[C@]1(CO)O[C@@H](n2cnc3c(N)nc(N)nc32)CC1O (stereo partly drawn) [Compound 28, 9-(2-deoxy-4-C-ethynyl-β-D-ribo-pentofuranosyl)-2,6-diaminopurine]",EC50,HIV-1 (IIIb strain); [21],0.0001 µg/mL
same,CC50 at 5 days,[2]; [15],0.26 µg/mL
same,EC50,HIV wild strain: WT; [16],0.00028 µg/mL
same,EC50,[3]; [17],0.00029 µg/mL
same,EC50,[4]; [18],0.0017 µg/mL
same,CC50,[5]; [19],2.7 µg/mL
"C#C[C@]1(CO)O[C@@H](n2cc(C)c(=O)[nH]c2=O)C[C@@H]1O [4′-C-ethynyl thymidine, 4′-C-ethynylthymidine, reference compound]",EC50,HIV-1 (IIIb strain); [20],0.22 µg/mL
same,CC50 at 5 days,[2]; [8],> 100 µg/mL
same,EC50,HIV wild strain: WT; [9],0.097 µg/mL
same,EC50,[3]; [10],0.033 µg/mL
same,EC50,[4]; [11],0.049 µg/mL
same,CC50,[5]; [12],> 100 µg/mL
same,anti-HIV activity compared with AZT,HIV-1 IIIb strain,weaker than that of AZT
"Cc1cn([C@H]2C[C@H](N=[N+]=[N-])[C@@H](CO)O2)c(=O)[nH]c1=O [AZT, zidovudine, reference compound]",EC50,HIV-1 (IIIb strain); [13],55 nM
same,EC50,HIV-1 (IIIb strain); [7],0.0016 µg/mL
same,EC50,HIV-1 (IIIb strain); [21],0.0011 µg/mL
same,CC50 at 5 days,"[2]; Table 2, read-out: Cytotoxicity (CC50, μg/ml)",> 0.27 µg/mL
same,CC50 at 5 days,"[2]; Table 3, read-out: Cytotoxicity (CC50, μg/ml)",9.08 µg/mL
same,EC50,HIV wild strain: WT; [9],0.0059 µg/mL
same,EC50,HIV wild strain: WT; [16],0.0027 µg/mL
same,EC50,[3]; [10],4.1 µg/mL
same,EC50,[3]; [17],5.34 µg/mL
same,EC50,[4]; [11],0.0083 µg/mL
same,EC50,[4]; [18],0.0013 µg/mL
same,EC90,"HIV strain NL4-3; Human immunodeficiency virus 1, NL43, Table 7, value in parentheses, HeLa CD4/LTR-beta-Gal cells, read-out: HIV NL-43 (EC90)",4.96 µM
same,EC50,"HIV strain NL4-3; Human immunodeficiency virus 1, NL43, Table 7, HeLa CD4/LTR-beta-Gal cells, read-out: HIV NL-43 EC50",0.109 µM
same,EC90,"HIV strain 104pre; Human immunodeficiency virus 1, Table 7, value in parentheses, HeLa CD4/LTR-beta-Gal cells, read-out: HIV 104 pre (EC90)",9.66 µM
same,EC50,"HIV strain 104pre; Human immunodeficiency virus 1, Table 7, HeLa CD4/LTR-beta-Gal cells, read-out: HIV 104 pre EC50",0.059 µM
same,EC90,HIV strain C,> 10 µM
same,EC50,HIV strain C,3.27 µM
same,CC50,[5]; [12],> 26.7 µg/mL
same,"Cytotoxicity (CC50, μg/ml)",[6],>26.7 µg/mL
Cc1ccccc1CNC(=O)[C@H]1N(C(=O)[C@@H](O)[C@H](Cc2ccccc2)NC(=O)c2cccc(O)c2C)CSC1(C)C [JE-2147],antiviral activity against a multi-PI resistant HIV-1,multi-PI resistant HIV-1,potent antiviral activity
"C#C[C@]1(CO)O[C@@H](n2cnc3c(=O)[nH]c(N)nc32)CC1O (stereo partly drawn) [Compound 30, 9-(2-deoxy4-C-ethynyl-β-D-ribo-pentofuranosyl)guanine]",EC50,HIV-1 (IIIb strain); [21],0.00044 µg/mL
same,CC50 at 5 days,[2]; [15],0.41 µg/mL
same,EC50,HIV wild strain: WT; [16],0.002 µg/mL
same,EC50,[3]; [17],0.0014 µg/mL
same,EC50,[4]; [18],0.0023 µg/mL
same,CC50,[5]; [19],15.2 µg/mL
